What was measured:
VLCAD [1] = biological target: T1, VLCAD (Mus musculus, UniProt P50544); assay: Quantification of S-nitrosylated VLCAD by organomercury capture in liver of treated mice; assay type: in vivo; set-up: Liver homogenate (final concentration of 0.03 μg/μl) or cell lysate; from tissue; host or cells: mouse liver (C57BL/6J wild-type, ob/ob, eNOS-/-); conditions: ob/ob mouse liver, from 25% S-nitrosylated VLCAD
T1 sequence (P50544 42-656): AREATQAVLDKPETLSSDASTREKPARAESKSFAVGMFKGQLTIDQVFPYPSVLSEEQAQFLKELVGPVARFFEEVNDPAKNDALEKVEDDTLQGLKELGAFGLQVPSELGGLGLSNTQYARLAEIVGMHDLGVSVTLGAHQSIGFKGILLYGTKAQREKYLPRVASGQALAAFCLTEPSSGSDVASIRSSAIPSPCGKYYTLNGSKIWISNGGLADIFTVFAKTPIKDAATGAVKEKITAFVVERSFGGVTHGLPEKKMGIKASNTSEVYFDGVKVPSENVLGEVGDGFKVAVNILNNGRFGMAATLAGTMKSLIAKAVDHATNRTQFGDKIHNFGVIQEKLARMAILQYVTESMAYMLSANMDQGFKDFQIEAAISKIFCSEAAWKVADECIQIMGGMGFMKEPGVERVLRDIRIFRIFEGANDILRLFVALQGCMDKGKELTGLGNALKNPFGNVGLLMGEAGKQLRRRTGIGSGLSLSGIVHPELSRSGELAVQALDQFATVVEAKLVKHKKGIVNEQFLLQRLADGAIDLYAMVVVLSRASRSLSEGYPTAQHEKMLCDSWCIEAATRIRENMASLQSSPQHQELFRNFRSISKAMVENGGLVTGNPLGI
Description: A detailed experimental procedure for the preparation and activation of columns, homogenate preparation for reaction with organic mercury resin, has been described (Doulias et al. (2010) Proc. Natl. Acad. Sci., 107:16958-16963). Three biological replicates from each organ were analyzed. […] The false identification rate was <6% for brain and <3% for all other organs. For washes, stringent conditions were selected due to the differences in lipid content among the six organs. Columns were initially washed with 50 bed volumes of 50 mM tris-HCl (pH 7.4) containing 300 mM NaCl and 0.5% SDS, followed by 50 bed volumes of the same buffer containing 0.05% SDS. Columns were washed with 50 bed volumes of 50 mM tris-HCl containing 300 mM NaCl (pH 7.4), 1% Triton X-100, and 1 M urea, followed by 50 bed volumes of the same buffer containing 0.1% Triton X-100 and 0.1 M urea. Finally, columns were washed with 200 bed volumes of water before proteins were eluted with 10 ml of 50 mM β-mercaptoethanol in water. Samples were concentrated and analyzed by gel-LC (liquid chromatography)-MS/MS analysis. For on-column digestion after the final wash with water, the columns were washed with 10 bed volumes of 0.1 M ammonium bicarbonate. Bound proteins were subjected to digestion by the addition of Trypsin Gold (1 μg/ml) (Promega) in one bed volume of 0.1 M […] in the dark for 16 hours at room temperature. […]

[2] = test system: β-oxidation of fatty acids; assay: Measurement of β-oxidation: 3H-labeled palmitoyl-CoA oxidation in liver homogenates of treated ob/ob mice; assay type: in vivo, mouse; conditions: GSNO-injected ob/ob mice (i.p.)
Description: (1957) J. Biol. Chem., 226:497-509). The aqueous phase was collected, and proteins were precipitated by the addition of 10% TCA followed by centrifugation at 8000 g for 10 minutes at room temperature. Remaining radioactive palmitoyl-CoA was eliminated by strong anion exchange chromatography with AG 1-X8 formate resin (Life Science). The effluent containing the ^3H2O was collected and used for scintillation counting. Each experiment was coupled with a background measurement, a sample containing no protein. The background count number was subtracted from each measurement corresponding to analysis samples. Leptin-deficient mice develop liver steatosis spontaneously under normal chow diet starting at 4 to 5 weeks of life that is characterized by a diminished rate of palmitate oxidation and accumulation of fat droplets in the form of triglycerides within the hepatocytes (Brix et al. (2002) Mol. Genet. Metab., 75:219-226; de Oliveira et al. (2008) J. Am. Coll. Nutr., 27:299-305). […] This significant reduction in the rate of palmitoyl-CoA oxidation indicated a deficiency in mitochondrial β-oxidation of fatty acids. […]

VLCAD [3] = biological target: T1, VLCAD

- increase of catalytic efficiency (kcat/KM) of S-nitrosylated VLCAD vs unmodified protein (VLCAD [1]): 29 fold
- VLCAD specific activity of untreated eNOS-/- relative to eNOS-/- liver tissue treated with GSNO (VLCAD [3]; 5 μM GSNO 30 minutes prior to the assay, 0.25 mM palmitoyl-CoA): significantly lower
- KM for VLCAD enzymatic activity, treated vs untreated homogenate (VLCAD [3]; eNOS-/- liver homogenates treated ex vivo with GSNO): increased five-fold
- S-nitrosylation of VLCAD at Cys238 ex vivo (VLCAD [3]; eNOS-/- liver homogenates treated with GSNO): readily modified
Compound: N[C@@H](CCC(=O)N[C@@H](CSN=O)C(=O)NCC(=O)O)C(=O)O [GSNO, S-nitrosoglutathione]
- palmitoyl-CoA oxidation rate compared with PBS-injected ob/ob mice [2]: significantly increased rate
